Series [1] deals with T1, HIV protease (Human immunodeficiency virus type 1 group M subtype B, UniProt P04585).
T1 construct: HIV protease is diluted in the assay buffer to a final enzyme concentration of 12.3 nanomolar, based on a molecular weight of 10,780
The series can be described thus: HIV protease enzyme assay. It counts as biochemical. The text has this: The compounds of the present invention are effective HIV protease inhibitors. Utilizing an enzyme assay as described below, the compounds set forth in the examples herein disclosed inhibited the HIV enzyme. The preferred compounds of the present invention and their calculated IC50 (inhibiting concentration 50%, i.e., the concentration at which the inhibitor compound reduces enzyme activity by 50%) values are shown in Table 17. The enzyme method is described below. The substrate is 2-Ile-Nle-Phe(p-NO2)-Gln-ArgNH2. The positive control is MVT-101 (Miller, M. et al, Science, 246, 1149 (1989)] The assay conditions are as follows:
20 mM sodium phosphate, pH 6.4
The above described substrate is dissolved in DMSO, then diluted 10 fold in assay buffer. Final substrate concentration in the assay is 80 μM.
HIV protease is diluted in the assay buffer to a final enzyme concentration of 12.3 nanomolar, based on a molecular weight of 10,780.
The final concentration of DMSO is 14% and the final concentration of glycerol is 18%. The test compound is dissolved in DMSO and diluted in DMSO to 10x the test concentration; 10 μl of the enzyme preparation is added, the materials mixed and then the mixture is incubated at ambient temperature for 15 minutes. The enzyme reaction is initiated by the addition of 40 μl of substrate. The increase in fluorescence is monitored at 4 time points (0, 8, 16 and 24 minutes) at ambient temperature. Each assay is carried out in duplicate wells.

Series [2] in a line: in vitro. It counts as cell-based. As to conditions: human, cem cells. The method, then: Methods, 20, 309-321 (1988). Assays can be performed in 96-well tissue culture plates. […] Several wells receive culture medium without virus (uninfected control cells). […] Either azidothymidine (AZT) or dideoxyinosine (ddI) is included as a positive drug control. […] DMSO is added to all control wells at an appropriate concentration. […] To each sample is added 100 μl of 10% sodium dodecylsulfate in 0.01N HCl to lyse the cells, and samples are incubated overnight.

For orientation: inhibition means the drop in the measured response relative to a control, in per cent. A high value points to a response far below the control. In series [1], `CC(C)(C)NS(=O)(=O)N(C[C@@H](O)[C@H](Cc1ccccc1)NC(=O)OCc1ccccc1)C1CCCCC1` [K] displayed an inhibition at 10 µM of 60%.

On to `CC(C)CN(C[C@@H](O)[C@H](Cc1ccccc1)NC(=O)OCc1ccccc1)S(=O)(=O)NCCOCc1ccccc1` [L], for which testing at 10 µM in series [1] gave an inhibition of 38%. By IC50 is commonly meant the point on the concentration scale where inhibition reaches its midpoint. Compound `CC(C)CN(C[C@@H](O)[C@H](Cc1ccccc1)NC(=O)[C@H](C)CS(C)(=O)=O)S(=O)(=O)NC(C)(C)C` [Example 14] had an IC50 in series [1] (Table 9, HIV protease enzyme assay, pH 6.4, substrate 80 μM) of 0.14 µM. By CC50 is commonly meant the concentration that lowers cell viability or growth by half. High values mean lower toxicity to the cells, low ones greater toxicity to the cells. `CC(C)CN(C[C@@H](O)[C@H](Cc1ccccc1)NC(=O)OCc1ccccc1)S(=O)(=O)Nc1ccccc1` [E] registered a CC50 at 168 h in series [2] of 7.5 µM.
